This is an account of results in patent publication US20260317344A1, “EGFR INHIBITORS FOR TREATING DISEASE” (BLOSSOMHILL THERAPEUTICS, INC., priority 2023, published 2026).

Each structure is given as a SMILES string. pIC50: −log10 of the molar value.

Holding throughout (type): cell-based
Test [1] deals with BaF3 cells with engineered EGFR d746-750/T790M. Briefly: 3-Day CellTiter Glo (CTG) cell proliferation assay, BaF3 EGFR d746-750/T790M. The conditions noted are these: Mus musculus; BaF3 EGFR d746-750/T790M cells, 3-day CTG proliferation, 72 hours. On the procedure: (§1) 3-DAY CellTiter Glo (CTG) Cell Proliferation Assays (BaF3 Cell Lines)
(§2) Cell proliferation assays were carried out in BaF3 cells engineered with EGFR mutations. BaF3 cells with engineered EGFR L858R/T790M/C797S, EGFR L858R/C797S, or EGFR d746-750/T790M transgene, one thousand cells/50 μL per well were seeded in white 384-well plate, followed by treatment with indicated compounds in a 9-dose dilution series using TECAN d300e liquid dispenser. Cells were incubated with compounds for 72 hours at 37° C. and 5% CO2. Cell proliferation was measured using CellTiter-Gbo 2.0 luciferase-based ATP detection assay (Promega, Madison, WI) at 18 μL per well following the manufacturer's protocol. Plates were then read on a TECAN Sparks multimode microplate reader. Data was analyzed using GraphPad Prism 9 (GraphiPad Software, San Diego, CA) to obtain IC50 values.

The target of test [2] is T1, pEGFR, PC-9 cells (d746-750 EGFR) (Homo sapiens, UniProt P00533, DEL746-750).
T1 construct: pEGFR (Tyr1068) TR-FRET
T1 sequence (P00533 with tags, fused parts or gaps DEL746-750): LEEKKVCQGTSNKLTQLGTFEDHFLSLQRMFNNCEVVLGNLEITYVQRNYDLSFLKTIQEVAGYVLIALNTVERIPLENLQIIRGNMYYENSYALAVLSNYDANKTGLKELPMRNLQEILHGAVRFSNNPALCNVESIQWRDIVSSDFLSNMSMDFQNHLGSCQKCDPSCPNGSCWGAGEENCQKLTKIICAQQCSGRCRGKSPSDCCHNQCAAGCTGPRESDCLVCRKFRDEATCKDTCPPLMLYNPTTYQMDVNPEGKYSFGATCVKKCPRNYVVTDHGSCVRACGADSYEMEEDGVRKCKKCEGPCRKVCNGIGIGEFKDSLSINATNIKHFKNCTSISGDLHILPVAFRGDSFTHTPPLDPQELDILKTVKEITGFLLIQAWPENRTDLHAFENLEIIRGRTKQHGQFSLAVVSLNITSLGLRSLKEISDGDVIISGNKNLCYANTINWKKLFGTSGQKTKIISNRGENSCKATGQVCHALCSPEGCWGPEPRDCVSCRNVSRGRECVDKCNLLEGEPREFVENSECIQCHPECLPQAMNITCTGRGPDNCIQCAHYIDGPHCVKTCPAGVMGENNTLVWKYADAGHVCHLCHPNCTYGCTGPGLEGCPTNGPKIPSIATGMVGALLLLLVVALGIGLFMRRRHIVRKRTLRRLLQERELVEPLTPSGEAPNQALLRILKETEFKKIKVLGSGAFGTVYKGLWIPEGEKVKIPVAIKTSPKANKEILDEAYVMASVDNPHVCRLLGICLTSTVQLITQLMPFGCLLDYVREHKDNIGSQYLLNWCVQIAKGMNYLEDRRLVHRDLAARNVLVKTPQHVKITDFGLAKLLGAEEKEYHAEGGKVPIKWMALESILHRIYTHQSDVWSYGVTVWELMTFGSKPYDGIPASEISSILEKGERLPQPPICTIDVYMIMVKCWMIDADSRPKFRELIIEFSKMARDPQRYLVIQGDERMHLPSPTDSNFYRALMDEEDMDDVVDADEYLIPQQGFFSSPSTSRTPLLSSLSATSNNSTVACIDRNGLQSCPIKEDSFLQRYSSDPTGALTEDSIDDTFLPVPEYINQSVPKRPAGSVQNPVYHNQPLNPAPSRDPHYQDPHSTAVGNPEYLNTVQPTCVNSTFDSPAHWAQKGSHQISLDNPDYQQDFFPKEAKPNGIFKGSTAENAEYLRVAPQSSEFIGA
Briefly: Cellular EGFR phosphorylation assay (LANCE Ultra TR-FRET) in PC-9 cells. The conditions noted are these: 4 hours at 37° C., read-out: PC-9 pEGFR IC50. Put shortly: (§3)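 4 h compound treatment at 37 °C, 9-point 3-fold titration. EGF (40 ng/mL, final 10 min) in A431 only. Tyr1068 phosphorylation measured by TR-FRET and IC50 fitted.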

In test [3] the target is T2, pEGFR, NCI-H1975 cells (L858R/T790M EGFR) (Homo sapiens, UniProt P00533, L858R/T790M).
T2 construct: pEGFR (Tyr1068) TR-FRET
T2 sequence (P00533 25-1210 T790M/L858R): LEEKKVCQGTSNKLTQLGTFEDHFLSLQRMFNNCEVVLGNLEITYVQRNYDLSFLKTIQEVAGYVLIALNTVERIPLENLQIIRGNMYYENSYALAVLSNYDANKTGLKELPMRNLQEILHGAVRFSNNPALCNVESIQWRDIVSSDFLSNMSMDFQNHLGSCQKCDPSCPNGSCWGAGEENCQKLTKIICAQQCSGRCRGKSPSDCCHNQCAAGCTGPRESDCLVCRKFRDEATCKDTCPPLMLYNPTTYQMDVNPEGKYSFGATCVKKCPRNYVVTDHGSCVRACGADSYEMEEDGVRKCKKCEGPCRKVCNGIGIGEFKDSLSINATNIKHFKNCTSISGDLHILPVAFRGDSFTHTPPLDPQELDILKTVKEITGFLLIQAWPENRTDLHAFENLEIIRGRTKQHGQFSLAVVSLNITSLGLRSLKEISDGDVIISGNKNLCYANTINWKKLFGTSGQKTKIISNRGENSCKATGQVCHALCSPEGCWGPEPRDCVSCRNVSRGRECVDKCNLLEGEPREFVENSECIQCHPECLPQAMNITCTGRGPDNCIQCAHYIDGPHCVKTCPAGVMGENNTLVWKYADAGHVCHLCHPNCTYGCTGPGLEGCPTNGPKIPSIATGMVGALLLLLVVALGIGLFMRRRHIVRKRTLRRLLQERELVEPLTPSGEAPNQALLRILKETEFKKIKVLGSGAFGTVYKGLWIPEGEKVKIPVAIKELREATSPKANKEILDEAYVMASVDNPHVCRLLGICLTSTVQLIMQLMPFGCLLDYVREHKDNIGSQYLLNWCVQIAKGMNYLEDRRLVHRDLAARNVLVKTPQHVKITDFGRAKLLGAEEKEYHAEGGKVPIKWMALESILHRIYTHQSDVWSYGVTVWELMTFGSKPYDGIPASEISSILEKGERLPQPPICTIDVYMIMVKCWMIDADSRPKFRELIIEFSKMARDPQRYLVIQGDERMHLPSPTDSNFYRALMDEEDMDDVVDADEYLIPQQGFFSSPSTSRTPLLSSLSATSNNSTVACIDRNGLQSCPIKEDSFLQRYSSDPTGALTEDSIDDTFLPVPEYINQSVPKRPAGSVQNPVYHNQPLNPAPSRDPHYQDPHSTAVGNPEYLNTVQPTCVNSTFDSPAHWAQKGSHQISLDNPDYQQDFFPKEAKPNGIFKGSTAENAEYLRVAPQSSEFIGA
Briefly: Cellular EGFR phosphorylation assay (LANCE Ultra TR-FRET) in NCI-H1975 cells. The conditions noted are these: 4 hours at 37° C., read-out: H1975 pEGFR IC50. Put shortly: as §3

The subject of test [4] is BaF3 cells with engineered EGFR L858R/C797S. Briefly: 3-Day CellTiter Glo (CTG) cell proliferation assay, BaF3 EGFR L858R/C797S. The conditions noted are these: Mus musculus, 3-day CTG proliferation, 72 hours. On the procedure:
as §1, §2
(In general: Cellular ATP, detected with luciferase, serves as a proxy for viable cell number.)

The target of test [5] is T3, pEGFR, A431 cells (wildtype EGFR) (Homo sapiens, UniProt P00533).
T3 construct: pEGFR (Tyr1068) TR-FRET
T3 sequence (P00533 25-1210): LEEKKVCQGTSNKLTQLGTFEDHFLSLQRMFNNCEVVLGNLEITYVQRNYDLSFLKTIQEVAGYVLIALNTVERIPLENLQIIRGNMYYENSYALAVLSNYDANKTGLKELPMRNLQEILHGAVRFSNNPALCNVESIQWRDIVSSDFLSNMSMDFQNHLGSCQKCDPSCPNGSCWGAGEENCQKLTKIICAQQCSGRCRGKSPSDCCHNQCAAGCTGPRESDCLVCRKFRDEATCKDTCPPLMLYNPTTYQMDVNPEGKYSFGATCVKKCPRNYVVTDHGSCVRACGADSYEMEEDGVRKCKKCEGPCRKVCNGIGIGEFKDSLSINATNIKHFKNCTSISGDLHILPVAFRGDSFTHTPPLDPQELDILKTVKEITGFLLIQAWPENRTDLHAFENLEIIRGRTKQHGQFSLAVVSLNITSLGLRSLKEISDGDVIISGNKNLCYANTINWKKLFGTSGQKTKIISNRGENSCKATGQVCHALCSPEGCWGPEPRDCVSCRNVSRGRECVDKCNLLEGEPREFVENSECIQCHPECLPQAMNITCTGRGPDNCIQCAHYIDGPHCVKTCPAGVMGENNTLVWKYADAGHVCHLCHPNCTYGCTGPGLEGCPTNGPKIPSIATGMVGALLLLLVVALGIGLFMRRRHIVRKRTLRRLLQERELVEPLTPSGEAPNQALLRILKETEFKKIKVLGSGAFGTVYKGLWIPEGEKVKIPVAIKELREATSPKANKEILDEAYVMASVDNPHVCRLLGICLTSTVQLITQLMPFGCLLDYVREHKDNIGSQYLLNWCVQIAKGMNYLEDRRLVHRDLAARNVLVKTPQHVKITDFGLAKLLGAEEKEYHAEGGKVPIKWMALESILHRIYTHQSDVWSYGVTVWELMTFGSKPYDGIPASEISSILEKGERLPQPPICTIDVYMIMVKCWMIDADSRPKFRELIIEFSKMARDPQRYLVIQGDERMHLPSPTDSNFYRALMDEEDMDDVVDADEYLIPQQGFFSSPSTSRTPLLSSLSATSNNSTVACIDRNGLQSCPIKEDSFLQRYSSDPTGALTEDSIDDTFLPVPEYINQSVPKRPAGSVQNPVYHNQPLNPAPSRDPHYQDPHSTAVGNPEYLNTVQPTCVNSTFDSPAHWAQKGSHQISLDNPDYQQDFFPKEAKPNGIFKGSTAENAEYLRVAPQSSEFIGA
Briefly: Cellular EGFR phosphorylation assay (LANCE Ultra TR-FRET) in A431 cells. The settings on record: 4 hours at 37° C., 40 ng/mL EGF for the final 10 minutes, read-out: A431 pEGFR IC50. Put shortly:
as §3

Test [6] relates to BaF3 cells with engineered EGFR L858R/T790M/C797S. Briefly: 3-Day CellTiter Glo (CTG) cell proliferation assay, BaF3 EGFR L858R/T790M/C797S. The conditions noted are these: Mus musculus, 3-day CTG proliferation, 72 hours. The method, boiled down:
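Growth inhibition in transgene-bearing BaF3 lines was scored after three days of compound treatment by CellTiter-Glo 2.0 ATP luminescence, yielding IC50 values.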

Test [7] relates to PC-9 cells. Briefly: 5-Day CellTiter Glo (CTG) cell proliferation assay, PC-9. The conditions noted are these: Homo sapiens; PC-9 cells (d746-750 EGFR), 5-day CTG proliferation, 120 hours; read-out: PC-9 IC50. Put shortly: (§4)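 Luminescent ATP signal (CellTiter-Glo 2.0) after 120 hours of compound exposure gave IC50 values. PC-9 and HCC827 harbour EGFR d746-750; NCI-H1975 harbours L858R/T790M.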

Test [8] deals with NCI-H1975 cells. Briefly: 5-Day CellTiter Glo (CTG) cell proliferation assay, NCI-H1975. The conditions noted are these: Homo sapiens; NCI-H1975 cells (L858R/T790M EGFR), 5-day CTG proliferation, 120 hours; read-out: H1975 IC50. Put shortly: as §4
Test [9] deals with HCC827 cells. Briefly: 5-Day CellTiter Glo (CTG) cell proliferation assay, HCC827. The settings on record: Homo sapiens; HCC827 cells (d746-750 EGFR), 5-day CTG proliferation, 120 hours; read-out: HCC827 IC50. Put shortly: as §4

Regarding `Cc1nn(CCO)c2c1/C=C/c1n[nH]c3c(C)nc(cc13)-c1c(C)nn(C)c1O[C@@H](C)CN(C(C)C)C2` [Ex. 109, 2-[(10S,17E)-6,8,10,16,20-pentamethyl-12-(propan-2-yl)-2,8,10,11,12,13-hexahydro-14H-5,3-(azenometheno)tripyrazolo[3,4-f3′,4′-j:4″,3″-n][1,4]oxazacyclopentadecin-14-yl]ethan-1-ol], the pIC50 in [1] was 8.93; in test [2], 8.54; in [3] it was 8.75; in test [4], 9.62; in test [5] it was 8.45; in test [6] it was 8.93. Also, the values for the pIC50 in [7], in test [8] and in test [9] were 8.26, 8.58 and 9.05, respectively.

For the compound `CCOc1nn([C@H](C)CO)c2c1/C=C/c1n[nH]c3cnc(cc13)-c1c(C)nn(C)c1O[C@H](C)CN(C)C2` [Ex. 89, (2R)-2-[(10R,17E)-16-ethoxy-6,8,10,12-tetramethyl-2,8,10,11,12,13-hexahydro-14H-5,3-(azenometheno)tripyrazolo[3,4-f:3′,4′-j:4″,3″-n][1,4]oxazacyclopentadecin-14-yl]propan-1-ol], the pIC50 in test [1] was 7.36; in test [2], 7.79; in test [3], 7.32; in test [4] it was 8.42; in test [5] it was 7.47; in [6], 7.68. Also, the figures for the pIC50 in test [7], in [8] and in [9] were 7.45, 6.90 and 7.96, respectively.

With `CCOc1nn(CCO)c2c1/C=C/c1n[nH]c3c(C)nc(cc13)-c1c(C)nn(C)c1OCCN(C)C2` [Ex. 75, 2-[(17E)-16-ethoxy-6,8,12,20-tetramethyl-2,8,10,11,12,13-hexahydro-14H-5,3-(azenometheno)tripyrazolo[3,4-f:3′,4′-j:4″,3″-n][1,4]oxazacyclopentadecin-14-yl]ethan-1-ol], the pIC50 was 6.69 in test [1]; 7.82 in [2]; 8.13 in test [3]; 9.66 in test [4]; 7.27 in test [5]; 8.53 in test [6]. Further, the pIC50 is 7.37 in [7], 7.13 in test [8] and 7.98 in test [9].

With `CCOc1nn(CCO)c2c1/C=C/c1n[nH]c3cnc(cc13)-c1c(C)nn(C)c1O[C@@H](C)CN(C1CC1)C2` [Ex. 113, 2-[(10S,17E)-12-cyclopropyl-16-ethoxy-6,8,10-trimethyl-2,8,10,11,12,13-hexahydro-14H-5,3-(azenometheno)tripyrazolo[3,4-f:3′,4′-j:4″,3″-n][1,4]oxazacyclopentadecin-14-yl]ethan-1-ol], the pIC50 was 8.93 in test [1]; 8.70 in [2]; 8.80 in test [3]; 9.96 in test [4]; 7.96 in test [5]; 9.04 in test [6]. Besides, the pIC50 in test [7] was 9.17; in [8], 8.85; in test [9], 9.35.

For the compound `CCOc1nn(CCO)c2c1/C=C/c1n[nH]c3c(C)nc(cc13)-c1c(C)nn(C)c1O[C@@H](C)[C@H]1CCCN1C2` [Ex. 177, 2-[(8aR,9S,19E)-1-ethoxy-9,11,13,21-tetramethyl-7,8,8a,9,11,17-hexahydro-6H-14,16-(azenometheno)tripyrazolo[3,4-f:3′,4′-j:4″,3″-n]pyrrolo[2,1-c][1,4]oxazacyclopentadecin-3(4H)-yl]ethan-1-ol], the pIC50 in test [1] is 9.06; in test [2] it was 9.00; in test [3], 8.86; in [4], 10.15; in [5], 8.05; in test [6] it was 9.01. The values for the pIC50 in test [7], in test [8] and in test [9] were 8.84, 8.59 and 9.41, respectively.

`CCOc1nn([C@@H](C)CO)c2c1/C=C/c1n[nH]c3cnc(cc13)-c1c(C)nn(C)c1O[C@@H](C)CNC2` [Ex. 92, (2S)-2-[(10S,17E)-16-ethoxy-6,8,10-trimethyl-2,8,10,11,12,13-hexahydro-14H-5,3-(azenometheno)tripyrazolo[3,4-f:3′,4′-j:4″,3″-n][1,4]oxazacyclopentadecin-14-yl]propan-1-ol]: the pIC50 in [1] was 7.53; in test [2] it was 7.90; in [3] it was 7.85; in test [4] it was 9.13; in [5], 7.48; in test [6], 8.39. For the same compound, the pIC50 in test [7] was 7.36; in test [8], 7.16; in test [9] it was 8.27.

In the case of `CCOc1nn(C[C@H](C)O)c2c1/C=C/c1n[nH]c3c(C)nc(cc13)-c1c(C)nn(C)c1O[C@@H](C)CN(C)C2` [Ex. 90, (2S)-1-[(10S,17E)-16-ethoxy-6,8,10,12,20-pentamethyl-2,8,10,11,12,13-hexahydro-14H-5,3-(azenometheno)tripyrazolo[3,4-f3′,4′-j:4″,3″-n][1,4]oxazacyclopentadecin-14-yl]propan-2-ol], the pIC50 in test [1] is 9.21; in test [2] it was 8.90; in test [3], 8.96; in test [4], 10.22; in [5], 8.07; in test [6] it was 9.32. The negative logarithm of the IC50 (pIC50) in test [7] was 8.63; in [8], 9.01; in [9], 9.24.

For `Cc1nn(C)c2c1/C=C/c1n[nH]c3c(C)nc(cc13)-c1c(C)nn(C)c1O[C@@H](C)CN(C(C)C)C2` [Ex. 106, (10S,17E)-6,8,10,14,16,20-hexamethyl-12-(propan-2-yl)-2,10,11,12,13,14-hexahydro-8H-5,3-(azenometheno)tripyrazolo[3,4-f:3′,4′-j:4″,3″-n][1,4]oxazacyclopentadecine], the pIC50 in test [1] was 8.32; in test [2], 8.05; in test [3], 8.52; in [4] it was 8.86; in test [5], 7.99; in test [6], 8.47. The figures for the pIC50 in test [7], in [8] and in test [9] were 7.83, 8.10 and 8.66, respectively.

On to `CCOc1nn(C[C@H](C)O)c2c1/C=C/c1n[nH]c3cnc(cc13)-c1c(C)nn(C)c1O[C@@H](C)CN(C1CC1)C2` [Ex. 107, (2S)-1-[(10S,17E)-12-cyclopropyl-16-ethoxy-6,8,10-trimethyl-2,8,10,11,12,13-hexahydro-14H-5,3-(azenometheno)tripyrazolo[3,4-f:3′,4′-j:4″,3″-n][1,4]oxazacyclopentadecin-14-yl]propan-2-ol], for which the pIC50 in [1] was 8.40; in test [2], 8.36; in [3], 8.15; in test [4] it was 9.31; in test [5], 8.29; in [6] it was 8.45. Moreover, the pIC50 in [7] was 7.97; in [8] it was 7.26; in test [9], 8.67.

With `CCOc1nn([C@H](C)CO)c2c1/C=C/c1n[nH]c3cnc(cc13)-c1c(C)nn(C)c1O[C@@H](C)CN(C)C2` [Ex. 88, (2R)-2-[(10S,17E)-16-ethoxy-6,8,10,12-tetramethyl-2,8,10,11,12,13-hexahydro-14H-5,3-(azenometheno)tripyrazolo[3,4-f:3′,4′-j:4″,3″-n][1,4]oxazacyclopentadecin-14-yl]propan-1-ol], the pIC50 in test [1] was 8.81; in test [2] it was 8.79; in test [3], 8.66; in test [4], 10.05; in test [5], 7.96; in test [6], 9.07. Further, the pIC50 in test [7] is 8.60; in test [8], 8.29; in test [9], 9.41.

One may read the pIC50 as the negative decadic logarithm of the IC50, by convention in mol/L.
